Data: ChEMBL document CHEMBL1152211, “Structure-activity study at positions 3 and 4 of human neuropeptide S” (Bioorg Med Chem, 2008)
Structures can show the parent of a compound that is named as a salt. Non-standard residues stand in square brackets, D forms with d. Residues, ends and D or L forms follow the SMILES beside them. *: point of attachment. Arg(NO2) = N=C(NCCC[C@H](N)C(=O)O)N[N+](=O)[O-]; hArg = N=C(N)NCCCC[C@H](N)C(=O)O; Cit = NC(=O)NCCC[C@H](N)C(=O)O; Orn = NCCC[C@H](N)C(=O)O; Dab = NCC[C@H](N)C(=O)O; Nva = CCC[C@H](N)C(=O)O; Abu = CC[C@H](N)C(=O)O; Dap = NC[C@H](N)C(=O)O; Tfa = O=C(C(F)(F)F)*

Columns and labels:
Type in all cases: functional, cell-based
[1] = target: T1, Neuropeptide S receptor (Mus musculus) (UniProt Q8BZP8); assay: Agonist activity at mouse NPSR expressed in HEK293 cells assessed as increase in intracellular calcium mobilization by FLIPR relative to baseline
T1 sequence (whole entry): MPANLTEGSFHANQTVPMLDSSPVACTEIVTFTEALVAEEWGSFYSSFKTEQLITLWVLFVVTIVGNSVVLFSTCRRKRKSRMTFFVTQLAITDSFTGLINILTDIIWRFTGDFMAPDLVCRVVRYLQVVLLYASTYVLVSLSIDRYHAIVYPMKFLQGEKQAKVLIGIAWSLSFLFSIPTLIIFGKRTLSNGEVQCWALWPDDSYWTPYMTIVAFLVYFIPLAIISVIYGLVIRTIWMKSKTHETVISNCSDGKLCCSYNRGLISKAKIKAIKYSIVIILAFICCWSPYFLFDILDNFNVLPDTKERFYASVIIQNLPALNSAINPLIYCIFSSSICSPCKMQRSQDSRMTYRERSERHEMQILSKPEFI

[2] = target: T2, Neuropeptide S receptor (Mus musculus, UniProt Q8BZP8); assay: Agonist activity at mouse NPSR expressed in HEK293 cells assessed as increase in intracellular calcium mobilization by FLIPR
T2 sequence (Q8BZP8 whole entry): T1 sequence (whole entry)

[3] = target: T1, Neuropeptide S receptor (Mus musculus); assay: Agonist activity at mouse NPSR expressed in HEK293 cells assessed as increase in intracellular calcium mobilization at 10 uM by FLIPR

What does the source list for `CSCC[C@H](NC(=O)CNC(=O)[C@@H](NC(=O)CNC(=O)[C@@H](NC(=O)CNC(=O)[C@H](CC(N)=O)NC(=O)[C@H](CCCCNC(=O)C(F)(F)F)NC(=O)[C@H](Cc1ccccc1)NC(=O)[C@@H](N)CO)C(C)C)[C@@H](C)O)C(=O)N[C@@H](CCCCN)C(=O)N[C@@H](CCCCN)C(=O)N[C@H](C(=O)N[C@@H](CO)C(=O)N[C@@H](Cc1ccccc1)C(=O)N[C@@H](CCC(N)=O)C(=O)N[C@@H](CCCNC(=N)N)C(=O)N[C@@H](C)C(=O)N[C@@H](CCCCN)C(=O)N[C@@H](CO)C(=O)O)[C@@H](C)O` (H-SFK(Tfa)NGVGTGMKKTSFQRAKS-OH)?
Emax [1]: 231%; EC50 [2]: 85.1 nM

With `CC[C@H](NC(=O)[C@H](Cc1ccccc1)NC(=O)[C@@H](N)CO)C(=O)N[C@@H](CC(N)=O)C(=O)NCC(=O)N[C@H](C(=O)NCC(=O)N[C@H](C(=O)NCC(=O)N[C@@H](CCSC)C(=O)N[C@@H](CCCCN)C(=O)N[C@@H](CCCCN)C(=O)N[C@H](C(=O)N[C@@H](CO)C(=O)N[C@@H](Cc1ccccc1)C(=O)N[C@@H](CCC(N)=O)C(=O)N[C@@H](CCCNC(=N)N)C(=O)N[C@@H](C)C(=O)N[C@@H](CCCCN)C(=O)N[C@@H](CO)C(=O)O)[C@@H](C)O)[C@@H](C)O)C(C)C` (H-SF[Abu]NGVGTGMKKTSFQRAKS-OH) as the molecule, how does the Emax [1] read?
The Emax was 218%.

What about the EC50 [2] of the same molecule?
The EC50 was 513 nM.

With `CSCC[C@H](NC(=O)CNC(=O)[C@@H](NC(=O)CNC(=O)[C@@H](NC(=O)CNC(=O)[C@H](CC(N)=O)NC(=O)[C@H](CCCN/C(N)=N/[N+](=O)[O-])NC(=O)[C@H](Cc1ccccc1)NC(=O)[C@@H](N)CO)C(C)C)[C@@H](C)O)C(=O)N[C@@H](CCCCN)C(=O)N[C@@H](CCCCN)C(=O)N[C@H](C(=O)N[C@@H](CO)C(=O)N[C@@H](Cc1ccccc1)C(=O)N[C@@H](CCC(N)=O)C(=O)N[C@@H](CCCNC(=N)N)C(=O)N[C@@H](C)C(=O)N[C@@H](CCCCN)C(=O)N[C@@H](CO)C(=O)O)[C@@H](C)O` (H-SF[Arg(NO2)]NGVGTGMKKTSFQRAKS-OH) as the molecule, how does the Emax [1] read?
The Emax was 288%.

And the EC50 [2]?
The EC50 was 21.9 nM.

Which results are given for `CSCC[C@H](NC(=O)CNC(=O)[C@@H](NC(=O)CNC(=O)[C@@H](NC(=O)CNC(=O)[C@H](CC(N)=O)NC(=O)[C@H](CCCNC(N)=O)NC(=O)[C@H](Cc1ccccc1)NC(=O)[C@@H](N)CO)C(C)C)[C@@H](C)O)C(=O)N[C@@H](CCCCN)C(=O)N[C@@H](CCCCN)C(=O)N[C@H](C(=O)N[C@@H](CO)C(=O)N[C@@H](Cc1ccccc1)C(=O)N[C@@H](CCC(N)=O)C(=O)N[C@@H](CCCNC(=N)N)C(=O)N[C@@H](C)C(=O)N[C@@H](CCCCN)C(=O)N[C@@H](CO)C(=O)O)[C@@H](C)O` (H-SF[Cit]NGVGTGMKKTSFQRAKS-OH)?
Emax [1]: 285%; EC50 [2]: 166 nM

How did the Emax [1] turn out when `CSCC[C@H](NC(=O)CNC(=O)[C@@H](NC(=O)CNC(=O)[C@@H](NC(=O)CNC(=O)[C@H](CC(N)=O)NC(=O)[C@H](CCN)NC(=O)[C@H](Cc1ccccc1)NC(=O)[C@@H](N)CO)C(C)C)[C@@H](C)O)C(=O)N[C@@H](CCCCN)C(=O)N[C@@H](CCCCN)C(=O)N[C@H](C(=O)N[C@@H](CO)C(=O)N[C@@H](Cc1ccccc1)C(=O)N[C@@H](CCC(N)=O)C(=O)N[C@@H](CCCNC(=N)N)C(=O)N[C@@H](C)C(=O)N[C@@H](CCCCN)C(=O)N[C@@H](CO)C(=O)O)[C@@H](C)O` (H-SF[Dab]NGVGTGMKKTSFQRAKS-OH) was run?
The Emax was 207%.

What about the EC50 [2] of the same molecule?
Its EC50 is 204 nM.

What does the source list for `CSCC[C@H](NC(=O)CNC(=O)[C@@H](NC(=O)CNC(=O)[C@@H](NC(=O)CNC(=O)[C@H](CC(N)=O)NC(=O)[C@H](CN)NC(=O)[C@H](Cc1ccccc1)NC(=O)[C@@H](N)CO)C(C)C)[C@@H](C)O)C(=O)N[C@@H](CCCCN)C(=O)N[C@@H](CCCCN)C(=O)N[C@H](C(=O)N[C@@H](CO)C(=O)N[C@@H](Cc1ccccc1)C(=O)N[C@@H](CCC(N)=O)C(=O)N[C@@H](CCCNC(=N)N)C(=O)N[C@@H](C)C(=O)N[C@@H](CCCCN)C(=O)N[C@@H](CO)C(=O)O)[C@@H](C)O` (H-SF[Dap]NGVGTGMKKTSFQRAKS-OH)?
Emax [1]: 196%; EC50 [2]: 240 nM

For `CCC[C@H](NC(=O)[C@H](Cc1ccccc1)NC(=O)[C@@H](N)CO)C(=O)N[C@@H](CC(N)=O)C(=O)NCC(=O)N[C@H](C(=O)NCC(=O)N[C@H](C(=O)NCC(=O)N[C@@H](CCSC)C(=O)N[C@@H](CCCCN)C(=O)N[C@@H](CCCCN)C(=O)N[C@H](C(=O)N[C@@H](CO)C(=O)N[C@@H](Cc1ccccc1)C(=O)N[C@@H](CCC(N)=O)C(=O)N[C@@H](CCCNC(=N)N)C(=O)N[C@@H](C)C(=O)N[C@@H](CCCCN)C(=O)N[C@@H](CO)C(=O)O)[C@@H](C)O)[C@@H](C)O)C(C)C` (H-SF[Nva]NGVGTGMKKTSFQRAKS-OH), which Emax [1] is on record?
The Emax was 207%.

What about the EC50 [2] of the same molecule?
Its EC50 is 135 nM.

For `CSCC[C@H](NC(=O)CNC(=O)[C@@H](NC(=O)CNC(=O)[C@@H](NC(=O)CNC(=O)[C@H](CC(N)=O)NC(=O)[C@H](CCCN)NC(=O)[C@H](Cc1ccccc1)NC(=O)[C@@H](N)CO)C(C)C)[C@@H](C)O)C(=O)N[C@@H](CCCCN)C(=O)N[C@@H](CCCCN)C(=O)N[C@H](C(=O)N[C@@H](CO)C(=O)N[C@@H](Cc1ccccc1)C(=O)N[C@@H](CCC(N)=O)C(=O)N[C@@H](CCCNC(=N)N)C(=O)N[C@@H](C)C(=O)N[C@@H](CCCCN)C(=O)N[C@@H](CO)C(=O)O)[C@@H](C)O` (H-SF[Orn]NGVGTGMKKTSFQRAKS-OH), which Emax [1] is on record?
Its Emax is 318%.

What about the EC50 [2] of the same molecule?
Its EC50 is 31.6 nM.

Which results are given for `CSCC[C@H](NC(=O)CNC(=O)[C@@H](NC(=O)CNC(=O)[C@@H](NC(=O)CNC(=O)[C@H](CC(N)=O)NC(=O)[C@H](CCCCNC(=N)N)NC(=O)[C@H](Cc1ccccc1)NC(=O)[C@@H](N)CO)C(C)C)[C@@H](C)O)C(=O)N[C@@H](CCCCN)C(=O)N[C@@H](CCCCN)C(=O)N[C@H](C(=O)N[C@@H](CO)C(=O)N[C@@H](Cc1ccccc1)C(=O)N[C@@H](CCC(N)=O)C(=O)N[C@@H](CCCNC(=N)N)C(=O)N[C@@H](C)C(=O)N[C@@H](CCCCN)C(=O)N[C@@H](CO)C(=O)O)[C@@H](C)O` (H-SF[hArg]NGVGTGMKKTSFQRAKS-OH)?
Emax [1]: 288%; EC50 [2]: 10.7 nM

How did the Emax [1] turn out when H-SFCNGVGTGMKKTSFQRAKS-OH was run?
The Emax was 256%.

And the EC50 [2]?
The EC50 was 372 nM.

With H-SFGNGVGTGMKKTSFQRAKS-OH as the molecule, how does the Emax [1] read?
The Emax was 264%.

What about the EC50 [2] of the same molecule?
The EC50 was 1260 nM.

What does the source list for H-SFHNGVGTGMKKTSFQRAKS-OH?
Emax [1]: 273%; EC50 [2]: 1550 nM

How did the Emax [1] turn out when H-SFKNGVGTGMKKTSFQRAKS-OH was run?
The Emax was 290%.

And the EC50 [2]?
Its EC50 is 18.2 nM.

Which Emax [1] does the source give for H-SFQNGVGTGMKKTSFQRAKS-OH here?
Its Emax is 295%.

What about the EC50 [2] of the same molecule?
The EC50 was 129 nM.

Which Emax [1] does the source give for “H-SFRNGVGTGMKKTSFQRAKS-OH [NEUROPEPTIDE S]” here?
The Emax was 234%.

What about the EC50 [2] of the same molecule?
The EC50 was 12 nM.

Which Emax [1] does the source give for H-SFRQGVGTGMKKTSFQRAKS-OH here?
The Emax was 210%.

What about the EC50 [2] of the same molecule?
The EC50 was 562 nM.

H-SFRTGVGTGMKKTSFQRAKS-OH was tested. Which Emax [1] did it give?
Its Emax is 253%.

And the EC50 [2]?
Its EC50 is 102 nM.

What does the source list for H-SFTNGVGTGMKKTSFQRAKS-OH?
Emax [1]: 272%; EC50 [2]: 871 nM

How did the Activity [3] turn out when H-SFYNGVGTGMKKTSFQRAKS-OH was run?
The Activity was 73%.
